Assay results published in ChEMBL document CHEMBL1201862, “PubChem BioAssay data set” (2004).
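Following 48 hours of exposure in 96-well plates, responses at five concentrations were used to interpolate endpoints linearly. GI50 is the concentration that inhibits growth by half.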 The source made the active and inactive calls. No stated cut-off is given here; in the data, active = GI50 up to about 1.1 µM and inactive = higher.

Experiments:
Assay in all cases: NCI-60 cell line screen, 48 h
[1] = test system: OVCAR-4
[2] = test system: OVCAR-5
[3] = test system: SK-MEL-28
[4] = test system: SK-MEL-5
[5] = test system: MDA-N
[6] = test system: UACC-257
[7] = test system: HOP-92
[8] = test system: BT-549
[9] = test system: K562
[10] = test system: UO-31
[11] = test system: HCT-116
[12] = test system: MDA-MB-231
[13] = test system: SW-620
[14] = test system: U-251
[15] = test system: NCI-H522
[16] = test system: SF-295
[17] = test system: SK-MEL-2
[18] = test system: EKVX
[19] = test system: MOLT-4
[20] = test system: RXF 393
[21] = test system: HCC 2998
[22] = test system: UACC-62
[23] = test system: SF-268
[24] = test system: SK-OV-3
[25] = test system: SN12C
[26] = test system: ACHN
[27] = test system: NCI-H460
[28] = test system: PC-3
[29] = test system: A498
[30] = test system: A549
[31] = test system: TK-10
[32] = test system: 786-0
[33] = test system: HL-60
[34] = test system: T47D
[35] = test system: SNB-19
[36] = test system: MDA-MB-435
[37] = test system: CAKI-1
[38] = test system: OVCAR-3
[39] = test system: HOP-62
[40] = test system: KM12
[41] = test system: NCI/ADR-RES
[42] = test system: MCF7
[43] = test system: NCI-H226
[44] = test system: SNB-75
[45] = test system: DU-145
[46] = test system: OVCAR-8
[47] = test system: HCT-15
[48] = test system: M14
[49] = test system: RPMI-8226
[50] = test system: LOX IMVI
[51] = test system: NCI-H23
[52] = test system: COLO 205
[53] = test system: Hs-578T
[54] = test system: IGROV-1
[55] = test system: Malme-3M
[56] = test system: HT-29
[57] = test system: SF-539
[58] = test system: CCRF-CEM

For `CC(C)CCNc1ncnc2[nH]ncc12`, the GI50 [1] was > 100 µM (inactive), the GI50 [2] was 49.4 µM (inactive) and the GI50 [3] was > 100 µM (inactive). The GI50 [4] was 36.6 µM (inactive), the GI50 [5] was 64.7 µM (inactive) and the GI50 [6] was 32 µM (inactive). For the same molecule, the GI50 [7] was 34.2 µM (inactive), the GI50 [8] was > 100 µM (inactive) and the GI50 [9] was 81.8 µM (inactive). The GI50 [10] was > 100 µM (inactive), the GI50 [11] was > 100 µM (inactive) and the GI50 [12] was > 100 µM (inactive). The GI50 [13] was > 100 µM (inactive), the GI50 [14] was > 100 µM (inactive) and the GI50 [15] was 59.4 µM (inactive). For the same molecule, the GI50 [16] was 52.1 µM (inactive), the GI50 [17] was > 100 µM (inactive) and the GI50 [18] was 26.4 µM (inactive). The GI50 [19] was 65.6 µM (inactive), the GI50 [20] was > 100 µM (inactive) and the GI50 [21] was > 100 µM (inactive). For the same molecule, the GI50 [22] was > 100 µM (inactive), the GI50 [23] was > 100 µM (inactive) and the GI50 [24] was > 100 µM (inactive). For the same molecule, the GI50 [25] was > 100 µM (inactive), the GI50 [26] was 68.9 µM (inactive) and the GI50 [27] was > 100 µM (inactive). The GI50 [28] was > 100 µM (inactive), the GI50 [29] was 45 µM (inactive) and the GI50 [30] was > 100 µM (inactive). The GI50 [31] was > 100 µM (inactive), the GI50 [32] was > 100 µM (inactive) and the GI50 [33] was > 100 µM (inactive). The GI50 [34] was 45.7 µM (inactive), the GI50 [35] was > 100 µM (inactive) and the GI50 [36] was 97.5 µM (inactive). For the same molecule, the GI50 [37] was 98.6 µM (inactive), the GI50 [38] was > 100 µM (inactive) and the GI50 [39] was 96.6 µM (inactive). For the same molecule, the GI50 [40] was 48.6 µM (inactive), the GI50 [41] was 77.4 µM (inactive) and the GI50 [42] was 72.8 µM (inactive). For the same molecule, the GI50 [43] was 60.3 µM (inactive), the GI50 [44] was > 100 µM (inactive) and the GI50 [45] was > 100 µM (inactive). The GI50 [46] was > 100 µM (inactive), the GI50 [47] was over 100 µM and the GI50 [48] was > 100 µM (inactive). For the same molecule, the GI50 [49] was 34 µM (inactive), the GI50 [50] was 91.2 µM (inactive) and the GI50 [51] was > 100 µM (inactive). For the same molecule, the GI50 [52] was 63.4 µM (inactive), the GI50 [53] was 46.7 µM (inactive) and the GI50 [54] was > 100 µM (inactive). The GI50 [55] was > 100 µM (inactive) and the GI50 [56] was > 100 µM (inactive).

`CC(NC(=O)C(N)CC(=O)O)NC(=O)N1CCCC1` (stereo not drawn) was tested, and the GI50 [1] was > 100 µM (inactive), the GI50 [2] was > 100 µM (inactive) and the GI50 [3] was > 100 µM (inactive). For the same molecule, the GI50 [4] was > 100 µM (inactive), the GI50 [5] was > 100 µM (inactive) and the GI50 [6] was > 100 µM (inactive). The GI50 [7] was > 100 µM (inactive), the GI50 [8] was > 100 µM (inactive) and the GI50 [9] was > 100 µM (inactive). For the same molecule, the GI50 [10] was > 100 µM (inactive), the GI50 [11] was > 100 µM (inactive) and the GI50 [12] was > 100 µM (inactive). For the same molecule, the GI50 [13] was > 100 µM (inactive), the GI50 [14] was > 100 µM (inactive) and the GI50 [15] was > 100 µM (inactive). For the same molecule, the GI50 [16] was > 100 µM (inactive), the GI50 [17] was > 100 µM (inactive) and the GI50 [18] was > 100 µM (inactive). The GI50 [19] was > 100 µM (inactive), the GI50 [57] was > 100 µM (inactive) and the GI50 [20] was > 100 µM (inactive). The GI50 [21] was > 100 µM (inactive), the GI50 [22] was > 100 µM (inactive) and the GI50 [23] was > 100 µM (inactive). The GI50 [24] was > 100 µM (inactive), the GI50 [25] was > 100 µM (inactive) and the GI50 [26] was > 100 µM (inactive). The GI50 [27] was > 100 µM (inactive), the GI50 [28] was > 100 µM (inactive) and the GI50 [29] was > 100 µM (inactive). For the same molecule, the GI50 [30] was > 100 µM (inactive), the GI50 [31] was > 100 µM (inactive) and the GI50 [32] was > 100 µM (inactive). The GI50 [34] was > 100 µM (inactive), the GI50 [35] was > 100 µM (inactive) and the GI50 [36] was > 100 µM (inactive). For the same molecule, the GI50 [37] was > 100 µM (inactive), the GI50 [58] was > 100 µM (inactive) and the GI50 [38] was > 100 µM (inactive). For the same molecule, the GI50 [39] was > 100 µM (inactive), the GI50 [40] was > 100 µM (inactive) and the GI50 [41] was > 100 µM (inactive). The GI50 [42] was > 100 µM (inactive), the GI50 [43] was > 100 µM (inactive) and the GI50 [44] was > 100 µM (inactive). For the same molecule, the GI50 [45] was > 100 µM (inactive), the GI50 [46] was > 100 µM (inactive) and the GI50 [47] was over 100 µM. For the same molecule, the GI50 [48] was > 100 µM (inactive), the GI50 [49] was > 100 µM (inactive) and the GI50 [50] was > 100 µM (inactive). For the same molecule, the GI50 [51] was > 100 µM (inactive), the GI50 [52] was > 100 µM (inactive) and the GI50 [53] was > 100 µM (inactive). The GI50 [54] was > 100 µM (inactive), the GI50 [55] was > 100 µM (inactive) and the GI50 [56] was > 100 µM (inactive).
